Patent publication US12084472B2 (Ardelyx, Inc., priority 2015, dated 2024)

target: T1, human TGR5 (Homo sapiens, UniProt Q8TDU6); experiment: Cell-based TGR5 assay (cAMP generation, HTRF); conditions: HEK293 cells stably transfected with human TGR5; cAMP by HTRF; 30 minutes at 37° C.; read-out: pEC50 Human TGR5 (converted)
T1 construct: expressed in transfected cells; host or cells: HEK293
T1 sequence (Q8TDU6 1-330): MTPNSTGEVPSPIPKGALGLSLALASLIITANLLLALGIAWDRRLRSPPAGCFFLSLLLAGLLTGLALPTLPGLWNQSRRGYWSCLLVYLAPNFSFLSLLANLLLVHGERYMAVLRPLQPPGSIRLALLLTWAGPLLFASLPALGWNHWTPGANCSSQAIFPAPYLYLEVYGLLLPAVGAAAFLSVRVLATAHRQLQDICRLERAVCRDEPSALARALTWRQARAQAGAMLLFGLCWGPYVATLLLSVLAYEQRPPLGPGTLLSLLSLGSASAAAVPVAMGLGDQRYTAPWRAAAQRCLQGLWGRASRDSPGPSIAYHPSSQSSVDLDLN
Outline: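 Read-out was HTRF detection of cAMP, converted to concentration via a standard curve and fitted (3-parameter logistic) for pEC50 and maximal response. Agonist stimulation used HEK293 cells stably transfected with human TGR5, incubated 30 min at 37° C in IBMX-containing buffer at 0.05 nM to 10 μM compound.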

EC50 | SMILES
< 0.1 µM | O=C(NC[C@H](O)[C@@H](O)[C@H](O)[C@H](O)CO)N(CCCCc1cc(Cl)c(COC2(c3cnccc3-c3ccccc3OC3CC3)CC2)cc1Cl)CCOCCO [Compound I-86, 1-(4-(2,5-dichloro-4-((1-(4-(2-cyclopropoxyphenyl)pyridin-3-yl)cyclopropoxy)methyl)phenyl)butyl)-1-(2-(2-hydroxyethoxy)ethyl)-3-((2S,3R,4R,5R)-2,3,4,5,6-pentahydroxyhexyl)urea]
< 0.1 µM | O=C(O)CN(C[C@H](O)[C@@H](O)[C@H](O)[C@H](O)CO)C(=O)CCCCc1cc(Cl)c(COC2(c3cnccc3-c3ccccc3OC3CC3)CC2)cc1Cl [Compound I-87, 2-(5-(2,5-dichloro-4-((1-(4-(2-cyclopropoxyphenyl)pyridin-3-yl)cyclopropoxy)methyl)phenyl)-N-((2S,3R,4R,5R)-2,3,4,5,6-pentahydroxyhexyl)pentanamido)acetic acid]
< 0.1 µM | O=C(O)CN1CCN(C(=O)CCCCc2cc(Cl)c(COC3(c4cnccc4-c4ccccc4OC4CC4)CC3)cc2Cl)CC1 [Compound I-88, 2-(4-(5-(2,5-dichloro-4-((1-(4-(2-cyclopropoxyphenyl)pyridin-3-yl)cyclopropoxy)methyl)phenyl)pentanoyl)piperazin-1-yl)acetic acid]
< 0.1 µM | O=C(O)CN1CCN(CCNC(=O)CCCCc2cc(Cl)c(COC3(c4cnccc4-c4ccccc4OC4CC4)CC3)cc2Cl)CC1 [Compound I-91, 2-(4-(2-(5-(2,5-dichloro-4-((1-(4-(2-cyclopropoxyphenyl)pyridin-3-yl)cyclopropoxy)methyl)phenyl)pentanamido)ethyl)piperazin-1-yl)acetic acid]
< 0.1 µM | O=C(CCCCc1cc(Cl)c(COC2(c3cnccc3-c3ccccc3OC3CC3)CC2)cc1Cl)N1CCN(C[C@H](O)[C@@H](O)[C@@H](O)[C@H](O)CO)CC1 [Compound I-92, 5-(2,5-dichloro-4-((1-(4-(2-cyclopropoxyphenyl)pyridin-3-yl)cyclopropoxy)methyl)phenyl)-1-(4-((2S,3R,4S,5R)-2,3,4,5,6-pentahydroxyhexyl)piperazin-1-yl)pentan-1-one]
< 0.1 µM | O=C(CCCCc1cc(Cl)c(COC2(c3cnccc3-c3ccccc3OC3CC3)CC2)cc1Cl)NC[C@@H]1O[C@H](C(=O)O)[C@@H](O)[C@H](O)[C@H]1O [Compound I-93, (2S,3S,4R,5R,6S)-6-((5-(2,5-dichloro-4-((1-(4-(2-cyclopropoxyphenyl)pyridin-3-yl)cyclopropoxy)methyl)phenyl)pentanamido)methyl)-3,4,5-trihydroxytetrahydro-2H-pyran-2-carboxylic acid]
< 0.1 µM | Cc1cc(COC2(c3cnccc3-c3ccccc3OC3CC3)CC2)c(Cl)cc1CCCCNC(=O)N[C@@H](CO)[C@@H](O)[C@H](O)[C@H](O)CO [Compound I-95, 1-(4-(5-chloro-4-((1-(4-(2-cyclopropoxyphenyl)pyridin-3-yl)cyclopropoxy)methyl)-2-methylphenyl)butyl)-3-((2S,3R,4S,5R)-1,3,4,5,6-pentahydroxyhexan-2-yl)urea]
< 0.1 µM | O=C(CN1CCN(C(=O)CCCCc2cc(Cl)c(COC3(c4cnccc4-c4ccccc4OC4CC4)CC3)cc2Cl)CC1)NC[C@H](O)[C@@H](O)[C@H](O)[C@H](O)CO [Compound I-98, 2-(4-{5-[2,5-dichloro-4-({1-[4-(2-cyclopropoxyphenyl)pyridin-3-yl]cyclopropoxy}methyl)phenyl]pentanoyl}piperazin-1-yl)-N-[(2S,3R,4R,5R)-2,3,4,5,6-pentahydroxyhexyl]acetamide]
0.126 to 1 µM | O=C(O)CCC(CCC(=O)O)(CCC(=O)O)NC(=O)CCCCc1cc(Cl)c(COC2(c3cnccc3-c3ccccc3OC3CC3)CC2)cc1Cl [Compound I-102, 4-(2-carboxyethyl)-4-{5-[2,5-dichloro-4-({1-[4-(2-cyclopropoxyphenyl)pyridin-3-yl]cyclopropoxy}methyl)phenyl]pentanamido}heptanedioic acid]
< 0.1 µM | O=C(CCCCc1cc(Cl)c(COC2(c3cnccc3-c3ccccc3OC3CC3)CC2)cc1Cl)N1CCN(C[C@H](O)[C@@H](O)[C@H](O[C@@H]2O[C@H](CO)[C@H](O)[C@H](O)[C@H]2O)[C@H](O)CO)CC1 [Compound I-103, 5-[2,5-dichloro-4-({1-[4-(2-cyclopropoxyphenyl)pyridin-3-yl]cyclopropoxy}methyl)phenyl]-1-{4-[(2S,3R,4R,5R)-2,3,5,6-tetrahydroxy-4-{[(2S,3R,4S,5R,6R)-3,4,5-trihydroxy-6-(hydroxymethyl)oxan-2-yl]oxy}hexyl]piperazin-1-yl}pentan-1-one]
< 0.1 µM | O=C(CCCCc1cc(Cl)c(COC2(c3cnccc3-c3ccccc3OC3CC3)CC2)cc1Cl)NCC1O[C@H](CO)[C@@H](O)[C@H](O)[C@H]1O (stereo partly drawn) [Compound I-104, 5-[2,5-dichloro-4-({1-[4-(2-cyclopropoxyphenyl)pyridin-3-yl]cyclopropoxy}methyl)phenyl]-N-{[(3R,4R,5S,6R)-3,4,5-trihydroxy-6-(hydroxymethyl)oxan-2-yl]methyl}pentanamide]

The next lines start with the molecule.

SMILES | EC50
O=C([C@@H](O)[C@@H](O)[C@H](O)[C@@H](O)CO)N(CCCCc1cc(Cl)c(COC2(c3cnccc3-c3ccccc3OC3CC3)CC2)cc1Cl)CCOCCO [Compound I-85] | < 0.1 µM
CN(C[C@H](O)[C@@H](O)[C@H](O)[C@H](O)CO)C(=O)CN1CCN(C(=O)CCCCc2cc(Cl)c(COC3(c4cnccc4-c4ccccc4OC4CC4)CC3)cc2Cl)CC1 [Compound I-89, 2-(4-(5-(2,5-dichloro-4-((1-(4-(2-cyclopropoxyphenyl)pyridin-3-yl)cyclopropoxy)methyl)phenyl)pentanoyl)piperazin-1-yl)-N-methyl-N-((2S,3R,4R,5R)-2,3,4,5,6-pentahydroxyhexyl)acetamide] | < 0.1 µM
O=C(CCCCc1cc(Cl)c(COC2(c3cnccc3-c3ccccc3OC3CC3)CC2)cc1Cl)NCCOCCOCCOCCNC(=O)CCCCc1cc(Cl)c(COC2(c3cnccc3-c3ccccc3OC3CC3)CC2)cc1Cl [Compound I-90, N,N′-(((oxybis(ethane-2,1-diyl))bis(oxy))bis(ethane-2,1-diyl))bis(5-(2,5-dichloro-4-((1-(4-(2-cyclopropoxyphenyl)pyridin-3-yl)cyclopropoxy)methyl)phenyl)pentanamide)] | 0.126 to 1 µM
CCN(C[C@H](O)[C@@H](O)[C@H](O)[C@H](O)CO)C(=O)NCCCCc1cc(Cl)c(COC2(c3cnccc3-c3ccccc3OC3CC3)CC2)cc1C [Compound I-94, 3-(4-(5-chloro-4-((1-(4-(2-cyclopropoxyphenyl)pyridin-3-yl)cyclopropoxy)methyl)-2-methylphenyl)butyl)-1-ethyl-1-((2S,3R,4R,5R)-2,3,4,5,6-pentahydroxyhexyl)urea] | < 0.1 µM
CCN(CCCCc1cc(Cl)c(COC2(c3cnccc3-c3ccccc3OC3CC3)CC2)cc1C)C(=O)NC[C@H](O)[C@@H](O)[C@H](O)[C@H](O)CO [Compound I-96, 1-(4-(5-chloro-4-((1-(4-(2-cyclopropoxyphenyl)pyridin-3-yl)cyclopropoxy)methyl)-2-methylphenyl)butyl)-1-ethyl-3-((2S,3R,4R,5R)-2,3,4,5,6-pentahydroxyhexyl)urea] | < 0.1 µM
Cc1cc(COC2(c3cnccc3-c3ccccc3OC3CC3)CC2)c(Cl)cc1CCCCN(CCO)C(=O)NC[C@H](O)[C@@H](O)[C@H](O)[C@H](O)CO [Compound I-97, 1-(4-(5-chloro-4-((1-(4-(2-cyclopropoxyphenyl)pyridin-3-yl)cyclopropoxy)methyl)-2-methylphenyl)butyl)-1-(2-hydroxyethyl)-3-((2S,3R,4R,5R)-2,3,4,5,6-pentahydroxyhexyl)urea] | 0.126 to 1 µM
O=C(CCCCc1cc(Cl)c(COC2(c3cnccc3-c3ccccc3OC3CC3)CC2)cc1Cl)NCCN1CCN(CC(=O)NC[C@H](O)[C@@H](O)[C@H](O)[C@H](O)CO)CC1 [Compound I-99, 5-[2,5-dichloro-4-({1-[4-(2-cyclopropoxyphenyl)pyridin-3-yl]cyclopropoxy}methyl)phenyl]-N-{2-[4-({[(2S,3R,4R,5R)-2,3,4,5,6-pentahydroxyhexyl]carbamoyl}methyl)piperazin-1-yl]ethyl}pentanamide] | < 0.1 µM
CN(C[C@H](O)[C@@H](O)[C@H](O)[C@H](O)CO)C(=O)CN1CCN(CCNC(=O)CCCCc2cc(Cl)c(COC3(c4cnccc4-c4ccccc4OC4CC4)CC3)cc2Cl)CC1 [Compound I-100, 5-[2,5-dichloro-4-({1-[4-(2-cyclopropoxyphenyl)pyridin-3-yl]cyclopropoxy}methyl)phenyl]-N-{2-[4-({methyl[(2S,3R,4R,5R)-2,3,4,5,6-pentahydroxyhexyl]carbamoyl}methyl)piperazin-1-yl]ethyl}pentanamide] | < 0.1 µM
O=C(CCCCc1cc(Cl)c(COC2(c3cnccc3-c3ccccc3OC3CC3)CC2)cc1Cl)NCCCN1CCN(CCCNC(=O)CCCCc2cc(Cl)c(COC3(c4cnccc4-c4ccccc4OC4CC4)CC3)cc2Cl)CC1 [Compound I-101, 5-[2,5-dichloro-4-({1-[4-(2-cyclopropoxyphenyl)pyridin-3-yl]cyclopropoxy}methyl)phenyl]-N-{3-[4-(3-{5-[2,5-dichloro-4-({1-[4-(2-cyclopropoxyphenyl)pyridin-3-yl]cyclopropoxy}methyl)phenyl]pentanamido}propyl)piperazin-1-yl]propyl}pentanamide] | 1.26 to 10 µM
